Measured values taken from publication PMC8330742, “New benzothieno[2,3-c]pyridines as non-steroidal CYP17 inhibitors: design, synthesis, anticancer screening, apoptosis induction, and in silico ADME profile studies” (Journal of Enzyme Inhibition and Medicinal Chemistry, 2021).

Assays:
[1] = test system: UO-31; experiment: NCI-60 SRB screen; type: cell-based, human; settings: UO-31; single dose 10^−5 M
[2] = test system: SNB-75; experiment: NCI-60 SRB screen; type: cell-based, human; settings: SNB-75; single dose 10^−5 M
[3] = test system: HL-60(TB); experiment: NCI-60 SRB screen; type: cell-based, human; settings: HL-60 (TB); single dose 10^−5 M
[4] = test system: HOP-62; experiment: NCI-60 SRB screen; type: cell-based, human; settings: HOP-62; single dose 10^−5 M
[5] = test system: 786-0; experiment: NCI-60 SRB screen; type: cell-based; settings: 786-0; single dose 10^−5 M
[6] = test system: HT-29; experiment: NCI-60 SRB screen; type: cell-based; settings: HT-29; single dose 10^−5 M
[7] = test system: SF-295; experiment: NCI-60 SRB screen; type: cell-based, human; settings: SF-295; single dose 10^−5 M
[8] = test system: SF-268; experiment: NCI-60 SRB screen; type: cell-based, human; settings: SF-268; single dose 10^−5 M
[9] = test system: SK-MEL-5; experiment: NCI-60 SRB screen; type: cell-based, human; settings: SK-MEL-5; single dose 10^−5 M
[10] = test system: IGROV1; experiment: NCI-60 SRB screen; type: cell-based, human; settings: IGROV1; single dose 10^−5 M
[11] = test system: HCT-116; experiment: NCI-60 SRB screen; type: cell-based, human; settings: HCT-116; single dose 10^−5 M
[12] = test system: KM12; experiment: NCI-60 SRB screen; type: cell-based, human; settings: KM12; single dose 10^−5 M
[13] = test system: NCI-H23; experiment: NCI-60 SRB screen; type: cell-based, human; settings: NCI-H23; single dose 10^−5 M
[14] = test system: RPMI-8226; experiment: NCI-60 SRB screen; type: cell-based; settings: RPMI-8226; single dose 10^−5 M
[15] = test system: OVCAR-4; experiment: NCI-60 SRB screen; type: cell-based, human; settings: OVCAR-4; single dose 10^−5 M
[16] = test system: K-562; experiment: NCI-60 SRB screen; type: cell-based, human; settings: K-562; single dose 10^−5 M
[17] = test system: NCI-H460; experiment: NCI-60 SRB screen; type: cell-based, human; settings: NCI-H460; single dose 10^−5 M
[18] = test system: SF-539; experiment: NCI-60 SRB screen; type: cell-based, human; settings: SF-539; single dose 10^−5 M
[19] = test system: SK-MEL-2; experiment: NCI-60 SRB screen; type: cell-based, human; settings: SK-MEL-2; single dose 10^−5 M
[20] = test system: HCT-15; experiment: NCI-60 SRB screen; type: cell-based, human; settings: HCT-15; single dose 10^−5 M
[21] = test system: NCI-H226; experiment: NCI-60 SRB screen; type: cell-based, human; settings: NCI-H226; single dose 10^−5 M
[22] = test system: UACC-62; experiment: NCI-60 SRB screen; type: cell-based, human; settings: UACC-62; single dose 10^−5 M
[23] = test system: ACHN; experiment: NCI-60 SRB screen; type: cell-based; settings: single dose 10^−5 M
[24] = test system: SNB-19; experiment: NCI-60 SRB screen; type: cell-based; settings: SNB-19; single dose 10^−5 M
[25] = test system: MDA-MB-435; experiment: NCI-60 SRB screen; type: cell-based; settings: MDA-MB435; single dose 10^−5 M
[26] = test system: SR; experiment: NCI-60 SRB screen; type: cell-based; settings: single dose 10^−5 M
[27] = test system: LOX IMVI; experiment: NCI-60 SRB screen; type: cell-based, human; settings: single dose 10^−5 M
[28] = test system: UACC-257; experiment: NCI-60 SRB screen; type: cell-based, human; settings: UACC-275 (so in the source); single dose 10^−5 M
[29] = test system: CCRF-CEM; experiment: NCI-60 SRB screen; type: cell-based; settings: single dose 10^−5 M
[30] = test system: OVCAR-5; experiment: NCI-60 SRB screen; type: cell-based, human; settings: OVCAR-5; single dose 10^−5 M
[31] = test system: A549/ATCC; experiment: NCI-60 SRB screen; type: cell-based, human; settings: single dose 10^−5 M
[32] = test system: NCI-H522; experiment: NCI-60 SRB screen; type: cell-based, human; settings: NCI-H522; single dose 10^−5 M
[33] = test system: OVCAR-3; experiment: NCI-60 SRB screen; type: cell-based, human; settings: OVCAR-3; single dose 10^−5 M
[34] = test system: MALME-3M; experiment: NCI-60 SRB screen; type: cell-based, human; settings: single dose 10^−5 M
[35] = test system: NCI/ADR-RES; experiment: NCI-60 SRB screen; type: cell-based, human; settings: single dose 10^−5 M
[36] = test system: CAKI-1; experiment: NCI-60 SRB screen; type: cell-based, human; settings: CAKI-1; single dose 10^−5 M
[37] = test system: HCC-2998; experiment: NCI-60 SRB screen; type: cell-based, human; settings: HCC-2998; single dose 10^−5 M
[38] = test system: TK-10; experiment: NCI-60 SRB screen; type: cell-based, human; settings: TK-10; single dose 10^−5 M
[39] = test system: SK-MEL-28; experiment: NCI-60 SRB screen; type: cell-based; settings: SK-MEL-28; single dose 10^−5 M
[40] = test system: RXF 393; experiment: NCI-60 SRB screen; type: cell-based, human; settings: RXF 393; single dose 10^−5 M
[41] = test system: MOLT-4; experiment: NCI-60 SRB screen; type: cell-based; settings: MOLT-4; single dose 10^−5 M
[42] = test system: M14; experiment: NCI-60 SRB screen; type: cell-based, human; settings: M14; single dose 10^−5 M
[43] = test system: A498; experiment: NCI-60 SRB screen; type: cell-based, human; settings: A498; single dose 10^−5 M
[44] = test system: SW-620; experiment: NCI-60 SRB screen; type: cell-based; settings: SW-620; single dose 10^−5 M
[45] = test system: panel of 60 cancer cell lines; experiment: NCI-60 SRB screen, mean or range over the panel; type: cell-based, human; settings: mean over the cell lines; single dose 10^−5 M
[46] = test system: SN12C; experiment: NCI-60 SRB screen; type: cell-based, human; settings: SN 12 C; single dose 10^−5 M
[47] = test system: NCI-H322M; experiment: NCI-60 SRB screen; type: cell-based, human; settings: single dose 10^−5 M
[48] = test system: U251; experiment: NCI-60 SRB screen; type: cell-based, human; settings: U251; single dose 10^−5 M
[49] = test system: COLO 205; experiment: NCI-60 SRB screen; type: cell-based, human; settings: COLO 205; single dose 10^−5 M
[50] = test system: HOP-92; experiment: NCI-60 SRB screen; type: cell-based, human; settings: HOP-92; single dose 10^−5 M
[51] = test system: SK-OV-3; experiment: NCI-60 SRB screen; type: cell-based, human; settings: SK-OV-3; single dose 10^−5 M
[52] = test system: OVCAR-8; experiment: NCI-60 SRB screen; type: cell-based, human; settings: OVCAR-8; single dose 10^−5 M
[53] = test system: EKVX; experiment: NCI-60 SRB screen; type: cell-based, human; settings: single dose 10^−5 M

Compound: O=C1C(=Cc2cccc([N+](=O)[O-])c2)Sc2c(F)cccc21 [Compound 2d, 7-Fluoro-2-(3-nitrobenzylidene)[1]benzothiophen-3(2H)-one]
- melting point: 200 to 202 °C

Compound: O=C1Cc2c(sc3c(F)cccc23)C(c2ccccc2[N+](=O)[O-])N1 (centres unmarked) [Compound 3c]
- Growth inhibition (%) [1]: 30.62%
- Growth inhibition (%) [2]: 10.03%
- Growth inhibition (%) [3]: −15.87%
- Growth inhibition (%) [4]: 8.52%
- Growth inhibition (%) [5]: −9.68%
- Growth inhibition (%) [6]: −12.09%
- Growth inhibition (%) [7]: −0.58%
- Growth inhibition (%) [8]: 6.16%
- Growth inhibition (%) [9]: 2.72%
- Growth inhibition (%) [10]: 34.55%
- Growth inhibition (%) [11]: 14.07%
- Growth inhibition (%) [12]: −0.49%
- Growth inhibition (%) [13]: 1.41%
- Growth inhibition (%) [14]: 4.62%
- Growth inhibition (%) [15]: 7.00%
- Growth inhibition (%) [16]: 2.86%
- Growth inhibition (%) [17]: 23.13%
- Growth inhibition (%) [18]: 10.42%
- Growth inhibition (%) [19]: −25.53%
- Growth inhibition (%) [20]: −10.00%
- Growth inhibition (%) [21]: 20.72%
- Growth inhibition (%) [22]: 12.83%
- Growth inhibition (%) [23]: −0.56%
- Growth inhibition (%) [24]: −0.33%
- Growth inhibition (%) [25]: −7.97%
- Growth inhibition (%) [26]: 0.60%
- Growth inhibition (%) [27]: 2.71%
- Growth inhibition (%) [28]: −19.98%
- Growth inhibition (%) [29]: −10.16%
- Growth inhibition (%) [30]: −8.05%
- Growth inhibition (%) [31]: −5.43%
- Growth inhibition (%) [32]: −1.98%
- Growth inhibition (%) [33]: 2.18%
- Growth inhibition (%) [34]: 5.53%
- Growth inhibition (%) [35]: −5.76%
- Growth inhibition (%) [36]: 24.17%
- Growth inhibition (%) [37]: −18.72%
- Growth inhibition (%) [38]: −41.81%
- Growth inhibition (%) [39]: −20.20%
- Growth inhibition (%) [40]: −24.83%
- Growth inhibition (%) [41]: −5.89%
- Growth inhibition (%) [42]: −0.72%
- Growth inhibition (%) [43]: −15.47%
- Growth inhibition (%) [44]: 20.70%
- Mean growth inhibition (%) [45]: 1.33%
- Growth inhibition (%) [46]: 0.94%
- Growth inhibition (%) [47]: 1.00%
- Growth inhibition (%) [48]: 14.88%
- Growth inhibition (%) [49]: −12.74%
- Growth inhibition (%) [50]: 7.78%
- Growth inhibition (%) [51]: 6.94%
- Growth inhibition (%) [52]: −7.33%
- Growth inhibition (%) [53]: 15.84%

Compound: O=C1Cc2c(sc3c(F)cccc23)C(c2cccc([N+](=O)[O-])c2)N1 (centres unmarked) [Compound 3d]
- Growth inhibition (%) [1]: 34.84%
- Growth inhibition (%) [2]: 21.53%
- Growth inhibition (%) [3]: 12.00%
- Growth inhibition (%) [4]: 14.32%
- Growth inhibition (%) [5]: −10.00%
- Growth inhibition (%) [6]: 0.03%
- Growth inhibition (%) [7]: 2.30%
- Growth inhibition (%) [8]: 14.60%
- Growth inhibition (%) [9]: 5.55%
- Growth inhibition (%) [10]: 20.45%
- Growth inhibition (%) [11]: 23.07%
- Growth inhibition (%) [12]: 3.93%
- Growth inhibition (%) [13]: 1.04%
- Growth inhibition (%) [14]: 29.04%
- Growth inhibition (%) [15]: −1.20%
- Growth inhibition (%) [16]: 15.78%
- Growth inhibition (%) [17]: 0.53%
- Growth inhibition (%) [18]: 6.60%
- Growth inhibition (%) [19]: −1.12%
- Growth inhibition (%) [20]: 21.33%
- Growth inhibition (%) [21]: 21.32%
- Growth inhibition (%) [22]: 14.07%
- Growth inhibition (%) [23]: 6.70%
- Growth inhibition (%) [24]: 6.23%
- Growth inhibition (%) [25]: −3.38%
- Growth inhibition (%) [26]: 23.81%
- Growth inhibition (%) [27]: 12.77%
- Growth inhibition (%) [28]: −7.53%
- Growth inhibition (%) [29]: 0.90%
- Growth inhibition (%) [30]: −8.70%
- Growth inhibition (%) [31]: −5.27%
- Growth inhibition (%) [32]: 17.55%
- Growth inhibition (%) [33]: 0.09%
- Growth inhibition (%) [34]: −6.36%
- Growth inhibition (%) [35]: 4.50%
- Growth inhibition (%) [36]: 21.82%
- Growth inhibition (%) [37]: −6.11%
- Growth inhibition (%) [38]: −52.28%
- Growth inhibition (%) [39]: −9.19%
- Growth inhibition (%) [40]: −5.23%
- Growth inhibition (%) [41]: 2.90%
- Growth inhibition (%) [42]: 1.35%
- Growth inhibition (%) [43]: 4.88%
- Growth inhibition (%) [44]: 2.40%
- Mean growth inhibition (%) [45]: 6.24%
- Growth inhibition (%) [46]: 4.04%
- Growth inhibition (%) [47]: 2.78%
- Growth inhibition (%) [48]: 20.57%
- Growth inhibition (%) [49]: −7.27%
- Growth inhibition (%) [50]: 10.96%
- Growth inhibition (%) [51]: −3.95%
- Growth inhibition (%) [52]: 2.86%
- Growth inhibition (%) [53]: 7.98%
